Reference: US20210221822A1, “TRICYCLIC DERIVATIVES INHIBITOR, PREPARATION METHOD, AND APPLICATIONS THEREOF” (Jiangsu Hansoh Pharmaceutical Group Co., Ltd., priority 2018, published 2021)
Where two headings read alike, the source gives them in different places.

Tests used:
[1] = Toxicokinetics in the 7-day repeated intragastric administration study in SD rats; type: in vivo, Sprague-Dawley (SD) rats; settings: Sprague-Dawley, rat, plasma, po, read-out: average system exposure AUC
Text: Liquid chromatography−mass spectrometry (detector: API4000, electrospray source (ESI) positive ion mode, column: Agilent ZORBAX XDB-C18 (3.5 μm, 2.1×50 mm)), which was used for the biological analysis of plasma sample.
(§1) 1) In the experiment, 112 rats (56 rats/sex) were divided into 14 groups by sex and body weight, wherein 70 rats were used for toxicology study (groups 1 to 7, 5 rats/sex/group) and 42 rats were used for toxicokinetics study (groups 8 to 14, 3 rats/sex/group).
(§2) 3) The animals in groups 2 and 9, groups 3 and 10, and groups 4 and 11 were intragastrically administered GDC-0077 at 10, 30 and 60 mg/kg, respectively.
(§3) 4) The animals in groups 5 and 12, groups 6 and 13, and groups 7 and 14 were intragastrically administered the compound of Example 51 at 10, 30 and 60 mg/kg, respectively.
(§4) 5) The animals were administered once a day for 7 consecutive days (the animals in groups 7 and 14 were administered for 6 consecutive days).
(§5) 7) During the experiment, items such as clinical observation, body weight, food intake, clinicopathological indicators (blood cell count, coagulation function, blood biochemistry), toxicokinetics and the like were studied.

[2] = Toxicity test of a 7-day repeatedly intragastric administration in SD rats; type: in vivo
Text: as §1
2) As the vehicle control group, the animals in groups 1 and 8 were intragastrically administered 20% aqueous SBE-(3-CD (Captisol) solution.
as §2, §3, §4
6) The administration volume was 10 mL/kg.
as §5
8) All animals were euthanized on Day 8 (the animals in groups 7 and 14 were euthanized after administration on Day 6).
9) During the experiment, gross anatomy observation was carried out on animals in groups 1 to 7, animals in group 14 and dead animals (including animals in toxicokinetics study), and histopathological examination was carried out on abnormal tissues, gastrointestinal tissues (such as colon and cecum) and immune tissues (such as thymus).

[3] = Pharmacokinetic (PK) assay in mice; type: in vivo; settings: male, Balb/c, mouse, plasma, po, single intragastric 5 mg/kg; for AUC(0-t): read-out: Area under curve AUC0-t; for AUC(0-inf): read-out: Area under curve AUC0-∞; for half-life: read-out: Half-life t1/2(h) (converted); for MRT: read-out: Mean residence time MRT; for Tmax: read-out: Peak time tmax; for Cmax: read-out: Plasma concentration Cmax
Method: The pharmacokinetic assay of the preferred compounds of the examples of the present invention in mice was carried out in Balb/c male mice (Shanghai Jiesijie Laboratory Animal Co., LTD). • Administration mode: single intragastric administration. • Administration dose: 5 mg/10 ml/kg (body weight). • Formulation: the compound was dissolved in 0.5% CMC-Na by ultrasound to obtain a clear solution or homogeneous suspension. • Sampling points: 0.5, 1, 2, 4, 6, 8 and 24 hours after administration. • Sample process: • 1) 0.1 mL of blood was taken from the orbit, placed in a K2-EDTA tube, and centrifuged for 5 to 20 minutes at room temperature at 1000 to 3000×g to separate the plasma, which was then stored at −80° C. • 2) 160 uL of acetonitrile was added to 40 uL of plasma sample for precipitation, and then the mixture was centrifuged for 5 to 20 minutes at 500 to 2000×g. • 3) 100 uL of processed supernatant was taken and analyzed by LC/MS/MS assay to determine the concentration of the test compound. • LC-MS/MS assay: • Liquid chromatography condition: Shimadzu LC-20AD pump • Mass spectrometry condition: AB Sciex API 4000 mass spectrometer • Chromatographic column: phenomenex Gemiu 5 μm C18 50×4.6 mm • Mobile phase: solution A was 0.1% aqueous formic acid solution, and solution B was acetonitrile • Flow rate: 0.8 mL/min • Elution time: 0-4 minutes gradient elution • Pharmacokinetics: […]
The main parameters were calculated using WinNonlin 6.1.

PI3Kδ = target: T1, PI3Kδ (Homo sapiens, UniProt O00329); assay: ADP-Glo lipid kinase assay, PI3Kδ kinase activity; type: biochemical; settings: 0.1 nM enzyme, 90 min, 100 μM ATP
T1 construct: purchased Carna 11-103
T1 sequence (O00329 whole entry): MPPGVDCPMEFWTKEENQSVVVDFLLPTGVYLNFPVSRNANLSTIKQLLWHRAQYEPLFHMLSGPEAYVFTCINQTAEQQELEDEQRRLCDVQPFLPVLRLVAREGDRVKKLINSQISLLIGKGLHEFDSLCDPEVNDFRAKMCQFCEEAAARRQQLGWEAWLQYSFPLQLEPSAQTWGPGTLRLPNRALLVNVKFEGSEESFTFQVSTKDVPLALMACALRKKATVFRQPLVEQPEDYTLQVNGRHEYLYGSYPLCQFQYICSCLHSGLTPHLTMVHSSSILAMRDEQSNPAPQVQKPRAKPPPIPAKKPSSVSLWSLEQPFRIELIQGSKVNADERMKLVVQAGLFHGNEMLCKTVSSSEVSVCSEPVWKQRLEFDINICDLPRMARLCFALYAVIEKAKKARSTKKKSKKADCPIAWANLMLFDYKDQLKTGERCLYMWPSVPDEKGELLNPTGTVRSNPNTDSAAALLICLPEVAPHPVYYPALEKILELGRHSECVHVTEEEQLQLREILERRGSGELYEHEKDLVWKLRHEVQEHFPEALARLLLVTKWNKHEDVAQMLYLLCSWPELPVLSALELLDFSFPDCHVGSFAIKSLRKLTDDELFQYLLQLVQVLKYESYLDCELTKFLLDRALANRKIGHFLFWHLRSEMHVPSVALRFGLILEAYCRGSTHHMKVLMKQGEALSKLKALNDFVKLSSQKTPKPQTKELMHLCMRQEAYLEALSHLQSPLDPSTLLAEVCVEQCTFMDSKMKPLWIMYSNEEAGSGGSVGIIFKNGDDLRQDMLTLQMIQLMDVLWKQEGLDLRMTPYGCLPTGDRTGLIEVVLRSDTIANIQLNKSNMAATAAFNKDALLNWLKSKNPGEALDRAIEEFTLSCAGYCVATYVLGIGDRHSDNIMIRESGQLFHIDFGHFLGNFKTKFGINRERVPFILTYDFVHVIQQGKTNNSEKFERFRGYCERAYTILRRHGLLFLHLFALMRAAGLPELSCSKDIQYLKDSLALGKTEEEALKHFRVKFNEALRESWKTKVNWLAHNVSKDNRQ
T1 sequence (P27986 whole entry partner): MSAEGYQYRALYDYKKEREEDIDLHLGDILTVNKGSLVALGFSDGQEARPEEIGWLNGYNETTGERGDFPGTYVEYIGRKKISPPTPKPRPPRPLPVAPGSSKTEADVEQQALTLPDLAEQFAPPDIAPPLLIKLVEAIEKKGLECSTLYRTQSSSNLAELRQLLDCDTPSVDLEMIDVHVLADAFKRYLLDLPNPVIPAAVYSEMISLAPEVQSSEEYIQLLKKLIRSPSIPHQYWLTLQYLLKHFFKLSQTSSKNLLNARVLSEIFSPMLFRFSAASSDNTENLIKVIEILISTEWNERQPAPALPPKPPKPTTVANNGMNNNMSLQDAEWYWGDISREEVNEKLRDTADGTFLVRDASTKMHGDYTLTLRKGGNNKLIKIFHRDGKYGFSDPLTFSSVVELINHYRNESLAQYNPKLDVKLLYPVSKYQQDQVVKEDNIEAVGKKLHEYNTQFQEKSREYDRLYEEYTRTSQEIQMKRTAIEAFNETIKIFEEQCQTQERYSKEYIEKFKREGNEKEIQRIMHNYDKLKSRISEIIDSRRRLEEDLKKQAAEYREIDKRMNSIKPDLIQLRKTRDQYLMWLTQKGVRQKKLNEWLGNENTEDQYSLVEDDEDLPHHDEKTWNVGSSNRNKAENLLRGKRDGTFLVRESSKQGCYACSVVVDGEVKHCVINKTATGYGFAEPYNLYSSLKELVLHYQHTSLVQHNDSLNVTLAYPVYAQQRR
Method: (§6) Experimental method: Promega's ADP-Glo lipid kinase assay method (Promega #V9102) was applied in this experiment. Lipid kinase PI3Kα/β/γ/δ catalyzed the generation of ADP from ATP in the presence of the substrate PIP2: 3PS and ATP. The lipid kinase activity was characterized by measuring the ADP content in the reaction, and the half inhibitory concentration IC50 of the compound on inhibiting PI3Kα/β/γ/δ kinase activity was thus obtained.
(§7) The kinase reaction was carried out in a white 384-well plate (Perkin Elmer #6007299). 2 μL of the compound solution of different concentrations diluted with ddH2O containing 1% DMSO was added to each well. 2 μL of ddH2O containing 1% DMSO was added to the positive control well. 2 μL of 0.1-2 nM PI3K kinase solution diluted with 5× kinase buffer (HEPES 250 mM, MgCl2 15 mM, NaCl 250 mM, BSA 0.05%) was added to each well. 2 μL of 5× kinase buffer was added to the negative control well. 4 μL of 50 μM substrate PIP2: 3PS (Promega #V1701) formulated with 10× Dilution buffer and ddH2O was added to all wells. Finally, 2 μL of […] ATP solution diluted with water was added to start the reaction. After the reaction was carried out at room temperature for 90 to 120 minutes, 10 μL of ADP-Glo Reagent (containing 10 mM MgCl2) was added to each well, and reacted at room temperature for 60 minutes to remove excess ATP in the reaction. 20 μL of Kinase Detection Reagent was added to each well, and reacted at room temperature in the dark for 20 minutes. The chemiluminescence value was measured by the BioTek Synergy H1 microplate reader.
(§8) The percentage inhibition data of the compound-treated well was calculated through the positive control well (DMSO control well) and negative control well (no kinase added) on the plate {% inhibition rate=100−[(test compound value−negative control value)]/(positive control value−negative control value)×100}. The IC50 value was calculated by fitting the data of different concentrations and corresponding percentage inhibition rates to a four-parameter nonlinear logic formula with GraphPad prism.

PI3Kβ = target: T2, PI3Kβ (Homo sapiens, UniProt P42338); assay: ADP-Glo lipid kinase assay, PI3Kβ kinase activity; type: biochemical; settings: 0.4 nM enzyme, 90 min, 100 μM ATP
T2 construct: purchased Carna 11-102
T2 sequence (P42338 whole entry): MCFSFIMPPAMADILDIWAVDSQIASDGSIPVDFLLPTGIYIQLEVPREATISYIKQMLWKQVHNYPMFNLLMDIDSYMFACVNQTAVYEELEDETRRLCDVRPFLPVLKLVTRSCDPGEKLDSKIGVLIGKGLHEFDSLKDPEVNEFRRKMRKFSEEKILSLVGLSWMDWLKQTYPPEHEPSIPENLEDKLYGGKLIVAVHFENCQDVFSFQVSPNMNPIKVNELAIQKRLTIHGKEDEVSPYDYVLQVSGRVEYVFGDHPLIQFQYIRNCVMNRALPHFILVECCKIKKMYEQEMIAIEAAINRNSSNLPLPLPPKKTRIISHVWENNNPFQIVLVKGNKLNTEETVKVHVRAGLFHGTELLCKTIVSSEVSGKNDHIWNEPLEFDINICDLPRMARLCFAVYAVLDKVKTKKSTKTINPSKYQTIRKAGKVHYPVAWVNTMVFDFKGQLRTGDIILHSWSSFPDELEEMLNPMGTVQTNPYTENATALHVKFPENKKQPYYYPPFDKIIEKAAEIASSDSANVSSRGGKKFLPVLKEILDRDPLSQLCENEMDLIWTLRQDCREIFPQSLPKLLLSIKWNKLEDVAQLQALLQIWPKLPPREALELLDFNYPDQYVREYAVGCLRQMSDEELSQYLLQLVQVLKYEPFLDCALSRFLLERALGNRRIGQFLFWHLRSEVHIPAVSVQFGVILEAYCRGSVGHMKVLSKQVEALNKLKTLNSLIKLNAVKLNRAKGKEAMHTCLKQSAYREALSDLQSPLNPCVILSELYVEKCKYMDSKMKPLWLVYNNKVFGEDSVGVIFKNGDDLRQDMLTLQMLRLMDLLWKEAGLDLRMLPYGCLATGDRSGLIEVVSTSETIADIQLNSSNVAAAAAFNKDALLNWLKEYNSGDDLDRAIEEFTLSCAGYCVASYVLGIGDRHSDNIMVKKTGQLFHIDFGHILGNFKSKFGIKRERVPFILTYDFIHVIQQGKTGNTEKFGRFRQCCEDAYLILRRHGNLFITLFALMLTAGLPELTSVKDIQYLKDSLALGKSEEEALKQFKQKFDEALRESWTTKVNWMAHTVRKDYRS
T2 sequence (P27986 whole entry partner): as the sequence (P27986 whole entry partner) above
Method: as §6, §7, §8

PI3Kα = target: T3, PI3Kα (Homo sapiens, UniProt P42336); assay: ADP-Glo lipid kinase assay, PI3Kα kinase activity; type: biochemical; settings: ADP-Glo; 0.1 nM enzyme, 120 min, 50 μM ATP
T3 construct: purchased Promega V1721
T3 sequence (P42336 whole entry): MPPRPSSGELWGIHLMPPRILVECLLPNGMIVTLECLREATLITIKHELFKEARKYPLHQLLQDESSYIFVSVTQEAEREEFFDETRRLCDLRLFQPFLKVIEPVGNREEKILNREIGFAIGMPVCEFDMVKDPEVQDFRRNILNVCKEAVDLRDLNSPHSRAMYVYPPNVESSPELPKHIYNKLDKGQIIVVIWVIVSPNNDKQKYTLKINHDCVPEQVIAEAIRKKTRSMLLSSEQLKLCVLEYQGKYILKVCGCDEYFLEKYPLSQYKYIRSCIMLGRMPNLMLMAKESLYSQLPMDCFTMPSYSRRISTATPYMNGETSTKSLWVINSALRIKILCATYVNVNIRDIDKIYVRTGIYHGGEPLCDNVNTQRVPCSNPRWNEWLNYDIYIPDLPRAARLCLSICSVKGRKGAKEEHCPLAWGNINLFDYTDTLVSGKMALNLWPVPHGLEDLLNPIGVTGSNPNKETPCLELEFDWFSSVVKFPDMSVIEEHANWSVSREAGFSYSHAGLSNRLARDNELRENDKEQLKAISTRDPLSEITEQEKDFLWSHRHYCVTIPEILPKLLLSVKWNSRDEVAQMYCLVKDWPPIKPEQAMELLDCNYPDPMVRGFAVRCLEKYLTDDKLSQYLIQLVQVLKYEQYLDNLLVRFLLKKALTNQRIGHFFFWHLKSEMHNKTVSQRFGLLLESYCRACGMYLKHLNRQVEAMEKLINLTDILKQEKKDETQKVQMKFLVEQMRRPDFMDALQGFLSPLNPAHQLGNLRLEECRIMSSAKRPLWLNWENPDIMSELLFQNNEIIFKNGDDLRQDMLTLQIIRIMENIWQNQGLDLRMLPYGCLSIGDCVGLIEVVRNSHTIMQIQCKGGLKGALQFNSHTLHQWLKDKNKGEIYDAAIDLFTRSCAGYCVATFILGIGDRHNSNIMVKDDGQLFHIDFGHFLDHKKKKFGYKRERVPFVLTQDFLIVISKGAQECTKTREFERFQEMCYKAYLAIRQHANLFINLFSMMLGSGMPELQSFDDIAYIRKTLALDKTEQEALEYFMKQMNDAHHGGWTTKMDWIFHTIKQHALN
T3 sequence (P27986 whole entry partner): as the sequence (P27986 whole entry partner) above
Method: as §6, §7, §8

PI3Kγ = target: T4, PI3Kγ (Homo sapiens, UniProt P48736); assay: ADP-Glo lipid kinase assay, PI3Kγ kinase activity; type: biochemical; settings: 0.4 nM enzyme, 120 min, 50 μM ATP
T4 construct: purchased Thermofisher PV4786
T4 sequence (P48736 whole entry): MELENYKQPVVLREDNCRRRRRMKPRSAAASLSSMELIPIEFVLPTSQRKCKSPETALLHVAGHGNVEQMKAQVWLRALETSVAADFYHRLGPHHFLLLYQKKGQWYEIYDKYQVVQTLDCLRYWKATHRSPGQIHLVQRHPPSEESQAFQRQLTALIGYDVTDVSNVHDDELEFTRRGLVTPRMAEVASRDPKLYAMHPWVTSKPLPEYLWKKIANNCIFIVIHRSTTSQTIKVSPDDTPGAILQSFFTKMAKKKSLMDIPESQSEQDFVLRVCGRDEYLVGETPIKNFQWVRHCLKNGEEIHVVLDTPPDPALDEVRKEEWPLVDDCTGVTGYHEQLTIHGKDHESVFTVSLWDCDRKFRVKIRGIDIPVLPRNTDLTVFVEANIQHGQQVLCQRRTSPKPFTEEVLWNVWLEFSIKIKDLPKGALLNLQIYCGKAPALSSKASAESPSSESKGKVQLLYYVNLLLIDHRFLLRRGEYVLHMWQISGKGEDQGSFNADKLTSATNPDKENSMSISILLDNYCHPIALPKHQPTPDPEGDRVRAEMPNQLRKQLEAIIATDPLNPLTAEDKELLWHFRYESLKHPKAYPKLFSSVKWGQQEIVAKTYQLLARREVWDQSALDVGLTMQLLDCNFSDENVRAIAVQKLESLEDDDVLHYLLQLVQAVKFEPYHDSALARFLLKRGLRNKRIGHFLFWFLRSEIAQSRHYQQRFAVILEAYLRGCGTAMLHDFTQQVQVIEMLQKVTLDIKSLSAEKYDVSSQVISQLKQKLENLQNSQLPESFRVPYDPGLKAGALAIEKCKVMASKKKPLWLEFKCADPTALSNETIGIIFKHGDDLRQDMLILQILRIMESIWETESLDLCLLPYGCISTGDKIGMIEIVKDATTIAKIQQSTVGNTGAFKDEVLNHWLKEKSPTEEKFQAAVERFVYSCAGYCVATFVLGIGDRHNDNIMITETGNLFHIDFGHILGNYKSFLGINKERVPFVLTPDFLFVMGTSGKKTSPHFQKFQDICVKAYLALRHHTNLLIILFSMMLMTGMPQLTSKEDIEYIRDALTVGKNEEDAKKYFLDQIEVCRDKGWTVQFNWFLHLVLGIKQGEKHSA
Method: as §6, §7, §8

[4] = SD rats, 10, 30 and 60 mg/kg (low, middle, high dose)

Structure (SMILES)	AUC(0-t) [3] [ng·h/mL]	AUC(0-inf) [3] [ng·h/mL]	half-life [3] [h]	MRT [3] [h]	Tmax [3] [h]	Cmax [3] [ng/mL]	IC50 (PI3Kδ) [nM]	IC50 (PI3Kβ) [nM]	IC50 (PI3Kα) [nM]	IC50 (PI3Kγ) [nM]	further results
C[C@H](Nc1ccc2c(c1)OCCn1cc(N3C(=O)OC[C@H]3C(F)F)nc1-2)C(N)=O [GDC-0077, reference compound]											AUC ([1]; 10 mg/kg intragastric once a day, after the last administration, female): 2250 ng·h/mL; AUC ([1]; 10 mg/kg intragastric once a day, after the last administration, male): 845 ng·h/mL; AUC ([1]; 30 mg/kg intragastric once a day, after the last administration, female): 6510 ng·h/mL; AUC ([1]; 30 mg/kg intragastric once a day, after the last administration, male): 3000 ng·h/mL; AUC ([1]; 60 mg/kg intragastric, after the first administration, female): 22800 ng·h/mL; AUC ([1]; 60 mg/kg intragastric, after the first administration, male): 15400 ng·h/mL; main target organs of the toxicity ([2]; SD rats): gastrointestinal tissues (such as stomach and cecum) and immune tissues (such as thymus); Blood cell counting and coagulation function ([2]; SD rats, 10, 30 and 60 mg/kg): In each dose group, Retic decreased in both male and female animals; Pathology, pathological changes under the microscope ([2]; SD rats, 10, 30 and 60 mg/kg): atrophy of goblet cells in the cecal mucosa, increase in thymic tingible body macrophages, and erosion, bleeding and edema of gastric mucosal; Body weight and food intake [2, 4]: In the middle-dose and high-dose groups, the final body weight of all animals declined, and their food intake also declined during the same period; Clinical observation [2, 4]: In the high-dose group, abnormal symptoms such as arched back, loose stools, perianal contamination and fluffy coat were observed; Near-death/death ([2]; SD rats, dose of 60 mg/kg): near-dead/dead animals were found; lethal dose ([2]; SD rats, intragastric once/day for 7 days): 60 mg/kg; MTD at 7 days ([2]; both sexes, Sprague-Dawley, rat, in vivo, po, SD rats, intragastric once/day for 7 days, read-out: maximum tolerated dose (MTD)): 30 mg/kg
C[C@H](Nc1ccc2c(c1F)OCCn1cc(N3C(=O)SC[C@H]3C(F)F)nc1-2)C(N)=O [Example 108, (S)-2-((2-((R)-4-(difluoromethyl)-2-oxothiazolidin-3-yl)-8-fluoro-5,6-dihydrobenzo[f]imidazo[1,2-d][1,4]oxazepin-9-yl)amino)propanamide]	4240	4240	2	3.4	0.5	1230	194	472	2.4	247	
C[C@H](Nc1ccc2c(c1)OCCn1cc(N3C(=O)O[C@H](C)[C@H]3C(F)F)nc1-2)C(N)=O [Example 54, (S)-2-((2-((4S,5R)-4-(difluoromethyl)-5-methyl-2-oxooxazolidin-3-yl)-5,6-dihydrobenzo[f]imidazo[1,2-d][1,4]oxazepin-9-yl)amino)propanamide]	1560	1620	1.8	2	1	832	336	1800	1.2	481	
C[C@H](Nc1ccc2c(c1F)OCCn1cc(N3C(=O)OC[C@H]3C(F)F)nc1-2)C(N)=O [Example 77, (S)-2-((2-((S)-4-(Difluoromethyl)-2-oxooxazolidin-3-yl)-8-fluoro-5,6-dihydrobenzo[f]imidazo[1,2-d][1,4]oxazepin-9-yl)amino)propanamide]	4090	4120	1.2	1.7	0.5	2300	306	924	5.2	450	

Now from value to compound, other results behind:

AUC(0-t) [3] [ng·h/mL]	AUC(0-inf) [3] [ng·h/mL]	half-life [3] [h]	MRT [3] [h]	Tmax [3] [h]	Cmax [3] [ng/mL]	IC50 (PI3Kδ) [nM]	IC50 (PI3Kβ) [nM]	IC50 (PI3Kα) [nM]	IC50 (PI3Kγ) [nM]	Structure (SMILES)	further results
1740	1740	2.8	3.9	0.5	466	125	1230	2.9	736	NC(=O)[C@@H]1CCCN1c1ccc2c(c1)OCCn1cc(N3C(=O)SC[C@H]3C(F)F)nc1-2 [Example 111, (S)-1-(2-((R)-4-(difluoromethyl)-2-oxothiazolidin-3-yl)-5,6-dihydrobenzo[f]imidazo[1,2-d][1,4]oxazepin-9-yl)pyrrolidine-2-carboxamide]	
3440	3500	1	1.8	0.5	2060	25	283	0.86	557	C[C@@H](C(N)=O)N(C)c1ccc2c(c1)OCCn1cc(N3C(=O)OC[C@H]3C(F)F)nc1-2 [Example 43, (S)-2-((2-((S)-4-(difluoromethyl)-2-oxooxazolidin-3-yl)-5,6-dihydrobenzo[f]imidazo[1,2-d][1,4]oxazepin-9-yl)(methyl)amino)propanamide]	
